Literature values, collected in patent US20060128805A1, “Methods of treating erythropoietin-resistance” (priority 2004, published 2006).

Conditions: within the first hour of oral administration

Cc1c(O)c(=O)ccn1C [deferiprone, 1,2-dimethyl-3-hydroxy-pyrid-4-one]
mean increase in plasma aluminum: about 90%
